Results taken from publication PMC5218480 (PLoS ONE, 2017).

Test system: MV-4-11 cells
Assay: Gene expression microarray analysis (Affymetrix PrimeView) and GSEA
Assay type: cell-based, human
Design: RFU PODN (11730768_x_at) / Fold change /veh PODN (11730768_x_at) / RFU LINC00158 (11744669_a_at) / Fold change /veh LINC00158 (11744669_a_at) / RFU DUSP10 (11751237_a_at) / Fold change /veh DUSP10 (11751237_a_at) / RFU ID3 (11757404_x_at) / Fold change /veh ID3 (11757404_x_at) / RFU PLEKHG5 (11737974_s_at) / Fold change /veh PLEKHG5 (11737974_s_at) / RFU LRRC4B (11730491_at) / Fold change /veh LRRC4B (11730491_at) / RFU GIMAP4 (11747438_a_at) / Fold change /veh GIMAP4 (11747438_a_at) / RFU KRT8 (11758183_x_at) / Fold change /veh KRT8 (11758183_x_at) / RFU CNN1 (11734310_a_at) / Fold change /veh CNN1 (11734310_a_at) / RFU VPS37D (11726825_at) / Fold change /veh VPS37D (11726825_at) / RFU C10orf10 (11716522_x_at) / Fold change /veh C10orf10 (11716522_x_at) / RFU KIR2DL2 /// KIR2DL4 /// KIR2DL5A /// KIR2DL5B /// KIR2DS1 /// KIR2DS2 /// KIR2DS3 /// KIR2DS4 /// KIR3DL3 /// KIR3DL3 /// KIR3DS1 (11738374_at) / Fold change /veh KIR2DL2 /// KIR2DL4 /// KIR2DL5A /// KIR2DL5B /// KIR2DS1 /// KIR2DS2 /// KIR2DS3 /// KIR2DS4 /// KIR3DL3 /// KIR3DL3 /// KIR3DS1 (11738374_at) / RFU C1QL1 (11718748_at) / Fold change /veh C1QL1 (11718748_at) / RFU TMPRSS4 (11747572_a_at) / Fold change /veh TMPRSS4 (11747572_a_at) / RFU HAMP (11756126_x_at) / Fold change /veh HAMP (11756126_x_at) / RFU RNFT2 (11725882_a_at) / Fold change /veh RNFT2 (11725882_a_at) / RFU NR4A2 (11747474_a_at) / Fold change /veh NR4A2 (11747474_a_at) / RFU ABCC12 (11746883_a_at) / Fold change /veh ABCC12 (11746883_a_at) / RFU TMEM136 (11760407_x_at) / Fold change /veh TMEM136 (11760407_x_at) / RFU CLDN22 /// WWC2 (11732394_at) / Fold change /veh CLDN22 /// WWC2 (11732394_at) / RFU HLA-DPB1 (11760878_x_at) / Fold change /veh HLA-DPB1 (11760878_x_at) / RFU SPINT1 (11716480_a_at) / Fold change /veh SPINT1 (11716480_a_at) / RFU GAP43 (11754022_s_at) / Fold change /veh GAP43 (11754022_s_at) / RFU A4GNT (11735810_at) / Fold change /veh A4GNT (11735810_at) / RFU PRB3 (11715151_x_at) / Fold change /veh PRB3 (11715151_x_at) / RFU TUBB4B (11761932_at) / Fold change /veh TUBB4B (11761932_at) / RFU CAPN14 (11732068_a_at) / Fold change /veh CAPN14 (11732068_a_at) / RFU TMCC2 (11721928_a_at) / Fold change /veh TMCC2 (11721928_a_at) / RFU IRGQ (11745062_a_at) / Fold change /veh IRGQ (11745062_a_at) / RFU FAM174B (11720279_a_at) / Fold change /veh FAM174B (11720279_a_at) / RFU TMPRSS4 (11748680_a_at) / Fold change /veh TMPRSS4 (11748680_a_at) / RFU FAM212B (11763350_a_at) / Fold change /veh FAM212B (11763350_a_at) / RFU PLEKHG5 (11743358_a_at) / Fold change /veh PLEKHG5 (11743358_a_at) / RFU ZSCAN30 (11745921_a_at) / Fold change /veh ZSCAN30 (11745921_a_at) / RFU CMKLR1 (11741424_a_at) / Fold change /veh CMKLR1 (11741424_a_at) / RFU LOC101060620 /// MAPK8IP1 (11723275_at) / Fold change /veh LOC101060620 /// MAPK8IP1 (11723275_at) / RFU SPTSSB (11747773_x_at) / Fold change /veh SPTSSB (11747773_x_at) / RFU PRSS12 (11739890_at) / Fold change /veh PRSS12 (11739890_at) / RFU BIN1 (11741810_x_at) / Fold change /veh BIN1 (11741810_x_at) / RFU WNT11 (11732464_a_at) / Fold change /veh WNT11 (11732464_a_at) / RFU C10orf10 (11716521_a_at) / Fold change /veh C10orf10 (11716521_a_at) / RFU C5orf56 (11738089_at) / Fold change /veh C5orf56 (11738089_at) / RFU CYB561 (11721691_x_at) / Fold change /veh CYB561 (11721691_x_at) / RFU ANKRD19P (11752326_a_at) / Fold change /veh ANKRD19P (11752326_a_at) / RFU OR2T12 /// OR2T33 /// OR2T8 (11738714_s_at) / Fold change /veh OR2T12 /// OR2T33 /// OR2T8 (11738714_s_at) / RFU VCAN (11748164_a_at) / Fold change /veh VCAN (11748164_a_at) / RFU JSRP1 (11732532_at) / Fold change /veh JSRP1 (11732532_at) / RFU KRTAP10-11 (11738290_x_at) / Fold change /veh KRTAP10-11 (11738290_x_at) / RFU MYO3A (11730013_a_at) / Fold change /veh MYO3A (11730013_a_at) / RFU EBF3 (11725865_a_at) / Fold change /veh EBF3 (11725865_a_at) / RFU CAMK2N1 (11719241_x_at) / Fold change /veh CAMK2N1 (11719241_x_at) / RFU C5orf56 (11738088_a_at) / Fold change /veh C5orf56 (11738088_a_at) / RFU OLFML3 (11715873_a_at) / Fold change /veh OLFML3 (11715873_a_at) / RFU LOC100653217 /// NTM (11731650_a_at) / Fold change /veh LOC100653217 /// NTM (11731650_a_at) / RFU MAPK11 (11762145_a_at) / Fold change /veh MAPK11 (11762145_a_at) / RFU FIZ1 (11724087_x_at) / Fold change /veh FIZ1 (11724087_x_at) / RFU OASL (11726364_x_at) / Fold change /veh OASL (11726364_x_at) / RFU SOX15 (11748057_x_at) / Fold change /veh SOX15 (11748057_x_at) / RFU CD79A (11719716_a_at) / Fold change /veh CD79A (11719716_a_at) / RFU HIST1H1D (11736915_at) / Fold change /veh HIST1H1D (11736915_at) / RFU CASKIN2 (11723855_a_at) / Fold change /veh CASKIN2 (11723855_a_at) / RFU LOC730098 (11760151_x_at) / Fold change /veh LOC730098 (11760151_x_at) / RFU OR4N2 (11742367_at) / Fold change /veh OR4N2 (11742367_at) / RFU PRRT2 (11749266_a_at) / Fold change /veh PRRT2 (11749266_a_at) / RFU SNX32 (11753110_a_at) / Fold change /veh SNX32 (11753110_a_at) / RFU CDHR5 (11726645_a_at) / Fold change /veh CDHR5 (11726645_a_at) / RFU RCAN1 (11760418_a_at) / Fold change /veh RCAN1 (11760418_a_at) / RFU FAM167A (11723789_a_at) / Fold change /veh FAM167A (11723789_a_at) / RFU FAM26E (11764081_at) / Fold change /veh FAM26E (11764081_at) / RFU ISYNA1 (11749810_s_at) / Fold change /veh ISYNA1 (11749810_s_at) / RFU ACY1 (11761880_at) / Fold change /veh ACY1 (11761880_at) / RFU 11764098_at / Fold change /veh 11764098_at / RFU SAMD14 (11745864_x_at) / Fold change /veh SAMD14 (11745864_x_at) / RFU NPB (11741838_a_at) / Fold change /veh NPB (11741838_a_at) / RFU TMPRSS6 (11731388_a_at) / Fold change /veh TMPRSS6 (11731388_a_at) / RFU KRTAP10-2 (11738614_at) / Fold change /veh KRTAP10-2 (11738614_at) / RFU ARHGAP8 /// PRR5-ARHGAP8 (11727945_x_at) / Fold change /veh ARHGAP8 /// PRR5-ARHGAP8 (11727945_x_at) / RFU KRTAP5-7 /// NADSYN1 (11734609_at) / Fold change /veh KRTAP5-7 /// NADSYN1 (11734609_at) / RFU RASL12 (11751679_a_at) / Fold change /veh RASL12 (11751679_a_at) / RFU CDKN2B (11736163_a_at) / Fold change /veh CDKN2B (11736163_a_at) / RFU PRF1 (11729649_at) / Fold change /veh PRF1 (11729649_at) / RFU, ZNF638 /// ZNF638-IT1 / Fold change vs veh, ZNF638 /// ZNF638-IT1 / RFU, PANK3 / Fold change vs veh, PANK3 / RFU, SH3YL1 / Fold change vs veh, SH3YL1 / RFU, ZEB2 / Fold change vs veh, ZEB2 / RFU, NRIP1 / Fold change vs veh, NRIP1 / RFU, PTTG1IP / Fold change vs veh, PTTG1IP / RFU, CAPN2 / Fold change vs veh, CAPN2 / RFU, MED14 / Fold change vs veh, MED14 / RFU, SNORA58 / Fold change vs veh, SNORA58 / RFU, C1orf63 / Fold change vs veh, C1orf63 / RFU, LRRFIP1 / Fold change vs veh, LRRFIP1 / RFU, NDUFAF7 / Fold change vs veh, NDUFAF7 / RFU, SLC12A2 / Fold change vs veh, SLC12A2 / RFU, IBTK / Fold change vs veh, IBTK / RFU, ESF1 / Fold change vs veh, ESF1 / Fold change vs veh, TMEM50B / RFU, TAOK1 / Fold change vs veh, TAOK1 / RFU, ACBD3 / Fold change vs veh, ACBD3 / RFU, TMA16 / Fold change vs veh, TMA16 / RFU, RWDD3 / Fold change vs veh, RWDD3 / RFU, BCAT1 / Fold change vs veh, BCAT1 / RFU, EDEM3 / Fold change vs veh, EDEM3 / RFU, TMEM33 / Fold change vs veh, TMEM33 / RFU, WDR75 / Fold change vs veh, WDR75 / RFU, AHCTF1 / Fold change vs veh, AHCTF1 / RFU, TFRC / Fold change vs veh, TFRC / RFU, ZDHHC17 / Fold change vs veh, ZDHHC17 / RFU, NOM1 / Fold change vs veh, NOM1 / RFU, ARL8B / Fold change vs veh, ARL8B / RFU, ZBTB11 / Fold change vs veh, ZBTB11 / RFU, TAMM41 / Fold change vs veh, TAMM41 / RFU, KIAA1704 /// LOC100996395 / Fold change vs veh, KIAA1704 /// LOC100996395 / RFU, ING1 / Fold change vs veh, ING1 / RFU, TRMT61B / Fold change vs veh, TRMT61B / RFU, FUBP3 / Fold change vs veh, FUBP3 / RFU, TP53 / Fold change vs veh, TP53 / RFU, TNKS2 / Fold change vs veh, TNKS2 / RFU, ZFP14 / Fold change vs veh, ZFP14 / RFU, ACTR2 / Fold change vs veh, ACTR2 / RFU, PPP3R1 / Fold change vs veh, PPP3R1 / RFU, PIK3R1 / Fold change vs veh, PIK3R1 / RFU, HNRNPA1 / Fold change vs veh, HNRNPA1 / RFU, RNF170 / Fold change vs veh, RNF170 / RFU, ZNF28 / Fold change vs veh, ZNF28 / RFU, RNGTT / Fold change vs veh, RNGTT / RFU, OGT / Fold change vs veh, OGT / RFU, BRD1 / Fold change vs veh, BRD1 / RFU, MARS / Fold change vs veh, MARS / RFU, ZNF655 / Fold change vs veh, ZNF655 / RFU, FAHD1 / Fold change vs veh, FAHD1 / RFU, BDP1 / Fold change vs veh, BDP1 / RFU, LRRCC1 / Fold change vs veh, LRRCC1 / RFU, ARID1A / Fold change vs veh, ARID1A / RFU, ZNF146 / Fold change vs veh, ZNF146 / RFU, ZNF330 / Fold change vs veh, ZNF330 / RFU, GPN3 / Fold change vs veh, GPN3 / RFU, C9orf123 / Fold change vs veh, C9orf123 / RFU, N4BP2L2 / Fold change vs veh, N4BP2L2 / RFU, ARFIP1 / Fold change vs veh, ARFIP1 / RFU, FAM179B / Fold change vs veh, FAM179B / RFU, BCL10 / Fold change vs veh, BCL10 / RFU, UHRF1BP1L / Fold change vs veh, UHRF1BP1L / RFU, BET1 / Fold change vs veh, BET1 / RFU, CNOT2 / Fold change vs veh, CNOT2 / RFU, ZNF268 / Fold change vs veh, ZNF268 / Fold change vs veh, ZNF507 / RFU, DGCR2 / Fold change vs veh, DGCR2 / RFU, WDSUB1 / Fold change vs veh, WDSUB1 / Fold change vs veh, HSP90B1 /// MIR3652 / RFU, ADSS / Fold change vs veh, ADSS / RFU, GK / Fold change vs veh, GK / RFU, ZNF148 / Fold change vs veh, ZNF148 / RFU, TAF9 / Fold change vs veh, TAF9 / RFU, SLC1A5 / Fold change vs veh, SLC1A5 / RFU, SLMO2 / Fold change vs veh, SLMO2 / RFU, ABCC4 / Fold change vs veh, ABCC4 / RFU, LOC101060439 /// RAP1B / Fold change vs veh, LOC101060439 /// RAP1B / RFU, RFX7 / Fold change vs veh, RFX7 / RFU, GTPBP10 / Fold change vs veh, GTPBP10 / RFU, CNEP1R1 / Fold change vs veh, CNEP1R1 / RFU, BIVM-ERCC5 /// ERCC5 / Fold change vs veh, BIVM-ERCC5 /// ERCC5 / RFU, ILF3 / Fold change vs veh, ILF3 / RFU 11762660_at / Fold change /veh 11762660_at / RFU VCAN (11757783_s_at) / Fold change /veh VCAN (11757783_s_at) / RFU DDX43 (11728927_at) / Fold change /veh DDX43 (11728927_at) / RFU KRT8 (11758188_x_at) / Fold change /veh KRT8 (11758188_x_at) / RFU NKD1 (11759106_at) / Fold change /veh NKD1 (11759106_at) / RFU SRD5A1 (11742802_a_at) / Fold change /veh SRD5A1 (11742802_a_at) / RFU TPSAB1 /// TPSB2 (11721975_s_at) / Fold change /veh TPSAB1 /// TPSB2 (11721975_s_at) / RFU GSTM3 (11746129_a_at) / Fold change /veh GSTM3 (11746129_a_at) / RFU IL23R (11737362_x_at) / Fold change /veh IL23R (11737362_x_at) / RFU TMEM51 (11727254_a_at) / Fold change /veh TMEM51 (11727254_a_at) / RFU PIWIL2 (11732686_x_at) / Fold change /veh PIWIL2 (11732686_x_at) / RFU ORM1 (11744905_x_at) / Fold change /veh ORM1 (11744905_x_at) / RFU CCDC152 (11743942_at) / Fold change /veh CCDC152 (11743942_at) / RFU ECM1 (11717891_a_at) / Fold change /veh ECM1 (11717891_a_at) / RFU IL23R (11748794_a_at) / Fold change /veh IL23R (11748794_a_at) / RFU TNFAIP8L3 (11732012_x_at) / Fold change /veh TNFAIP8L3 (11732012_x_at) / RFU MBOAT4 (11741988_at) / Fold change /veh MBOAT4 (11741988_at) / RFU 11764193_at / Fold change /veh 11764193_at / RFU TMEM53 (11763286_at) / Fold change /veh TMEM53 (11763286_at) / RFU MAGEB2 (11727129_at) / Fold change /veh MAGEB2 (11727129_at) / RFU TMEM200A (11744735_a_at) / Fold change /veh TMEM200A (11744735_a_at) / RFU CCDC152 (11751479_a_at) / Fold change /veh CCDC152 (11751479_a_at) / RFU FAM211A (11726209_a_at) / Fold change /veh FAM211A (11726209_a_at) / RFU RGS16 (11746705_a_at) / Fold change /veh RGS16 (11746705_a_at) / RFU VCAN (11755009_s_at) / Fold change /veh VCAN (11755009_s_at) / RFU RHOB (11743442_s_at) / Fold change /veh RHOB (11743442_s_at) / RFU RGS16 (11720943_a_at) / Fold change /veh RGS16 (11720943_a_at) / RFU RGS16 (11720944_at) / Fold change /veh RGS16 (11720944_at) / RFU, VPS4B / Fold change vs veh, VPS4B / RFU, CREB1 / Fold change vs veh, CREB1 / RFU, DNAJC13 / Fold change vs veh, DNAJC13 / RFU, GNAQ / Fold change vs veh, GNAQ / RFU, CDK5R1 / Fold change vs veh, CDK5R1 / RFU, ZRANB3 / Fold change vs veh, ZRANB3 / RFU, CUL4A / Fold change vs veh, CUL4A / RFU, CCNY / Fold change vs veh, CCNY / RFU, UFL1 / Fold change vs veh, UFL1 / RFU, COG3 / Fold change vs veh, COG3 / RFU, DIAPH2 / Fold change vs veh, DIAPH2 / RFU, SKA2 / Fold change vs veh, SKA2 / RFU, AFF3 / Fold change vs veh, AFF3 / RFU, LMF1 / Fold change vs veh, LMF1 / RFU, IPO11 / Fold change vs veh, IPO11 / RFU, DFFB / Fold change vs veh, DFFB / RFU, FOXP1 / Fold change vs veh, FOXP1 / RFU, CARD8 / Fold change vs veh, CARD8 / RFU, STRN3 / Fold change vs veh, STRN3 / RFU, ADK / Fold change vs veh, ADK / RFU, RASSF2 / Fold change vs veh, RASSF2 / RFU, WIPF1 / Fold change vs veh, WIPF1 / RFU, LARP1B / Fold change vs veh, LARP1B / RFU, RASA1 / Fold change vs veh, RASA1 / RFU, RB1 / Fold change vs veh, RB1 / RFU, PPFIA1 / Fold change vs veh, PPFIA1 / RFU, MAT2A / Fold change vs veh, MAT2A / RFU, CCT5 / Fold change vs veh, CCT5 / RFU, WDR92 / Fold change vs veh, WDR92 / RFU, CUX1 / Fold change vs veh, CUX1 / RFU, TTC7A / Fold change vs veh, TTC7A / RFU, TMEM135 / Fold change vs veh, TMEM135 / RFU, DEPTOR / Fold change vs veh, DEPTOR / RFU, CPM / Fold change vs veh, CPM / RFU, DNAJB6 / Fold change vs veh, DNAJB6 / RFU, CACNA2D3 / Fold change vs veh, CACNA2D3 / RFU, DTX4 / Fold change vs veh, DTX4 / RFU, TFCP2 / Fold change vs veh, TFCP2 / RFU, GMCL1 /// GMCL1P1 / Fold change vs veh, GMCL1 /// GMCL1P1 / RFU, AEBP2 / Fold change vs veh, AEBP2 / RFU, SNHG1 /// SNORD22 /// SNORD25 /// SNORD26 /// SNORD27 /// SNORD28 /// SNORD29 /// SNORD31 / Fold change vs veh, SNHG1 /// SNORD22 /// SNORD25 /// SNORD26 /// SNORD27 /// SNORD28 /// SNORD29 /// SNORD31 / Fold change (Aza/veh), C12orf56 (ProbeSet 11735607_a_at) / Fold change (ACY-1035/veh), C12orf56 (ProbeSet 11735607_a_at) / Fold change (Aza/veh), FGFR1OP (ProbeSet 11751329_s_at) / Fold change (ACY-1035/veh), FGFR1OP (ProbeSet 11751329_s_at) / Fold change (Aza/veh), VPS36 (ProbeSet 11739960_a_at) / Fold change (ACY-1035/veh), VPS36 (ProbeSet 11739960_a_at) / RFU SYPL1 (11715823_x_at) / Fold change /veh SYPL1 (11715823_x_at) / RFU IGFBP7 (11715501_s_at) / Fold change /veh IGFBP7 (11715501_s_at) / RFU REEP3 (11722064_at) / Fold change /veh REEP3 (11722064_at) / RFU IGLL1 (11728026_x_at) / Fold change /veh IGLL1 (11728026_x_at): dose or concentration left out as unconfirmed
Conditions: ProbeSet 11731093_s_at; LIST B

Nc1ccc(-c2cccs2)cc1NC(=O)c1ccc2c(c1)cc(C1CC1)n2CCN1CCOCC1 [ACY-1035]
Fold change vs veh, BRD1: 0.87
